In patent US10543189B2, “2-acetylnaphtho[2,3-b]furan -4,9-dione for use on treating cancer” (Boston Biomedical, Inc., priority 2013, dated 2020):

Test: Particle size distribution of milled/micronized Compound 1 crystals
Type: physicochemical
Settings: for Particle Size D50: median size; for Particle Size D90: size for which 90% of particles are equal or smaller
Description: For example, Compound 1 crystals were milled (The Retsch Ultra centrifugal Mill ZM 200; Single pass, at 18,000 rpm using 0.25 mm screen) to a median particle size of about 20 micron. Table 3 presents the resultant distribution of particle sizes (Malvern 2000 with the Hydro 2000S wet accessory). The columns present the maximum size of particles in the cumulative percent total presented in the subscript at the header of the column. For example, the column D90 presents the size for which 90% of the particles have an equal or lesser size. The column D50 represents the median size—half of the particles have a greater size, and half of the particles have an equal or lesser size.
For example, Compound 1 crystals were micronized using a jet milling method (4″ Jet Mill, Venturi pressure=40, Mill pressure=100, Feed rate=1304 g/hour) to a median particle size of about 2 micron, as presented in Table 4. Particle size analysis was performed using a dry particle method (Sympatec Helos/KF Particle Size Analyzer).

| Structure (SMILES) | Particle Size D10 | Particle Size D50 | Particle Size D90 |
| --- | --- | --- | --- |
| CC(=O)c1cc2c(o1)C(=O)c1ccccc1C2=O [Sample A, 2-acetylnaphtho[2,3-b]furan-4,9-dione] | 0.53 microns | 2.07 microns | 4.63 microns |
| CC(=O)c1cc2c(o1)C(=O)c1ccccc1C2=O [Sample B, 2-acetylnaphtho[2,3-b]furan-4,9-dione] | 2.3 microns | 20.2 microns | 48.9 microns |
